According to patent US11952586B2, “B-cell cultivation method” (Hoffmann-La Roche Inc., priority 2017, dated 2024):

Legend:
single deposited B-cells = test: co-cultivation of single deposited B-cells with EL-4 B5 feeder cells; IgG in supernatant by ELISA; type: cell-based, rabbit; settings: addition of PAP-1 to the co-cultivation
Method: Single cell sorted B-cells were cultured in 96-well plates with 200 μl/well EL-4 B5 medium with Pansorbin Cells (SAC) (Calbiochem (Merck), Darmstadt, Deutschland), EL-4 B5 cells (0-5×10^4/well) and rabbit thymocyte supernatant or cytokine mix, respectively, for 7 days at 37° C. in an atmosphere of 5% CO2 in the incubator. B-cell culture supernatants were removed for screening and the cells harvested immediately for variable region gene cloning or frozen at −80° C. in 100 μl RLT buffer (Qiagen, Hilden, Germany).
A mixture of 0.5 μg/ml of biotinylated mouse anti-rabbit IgG antibody (Sigma-Aldrich) and 0.35 μg/ml anti-rabbit IgG HRP conjugate (Sigma-Aldrich) was transferred to 384 well streptavidin coated microtiter plates (MicroCoat Biotechnologie GmbH). Dilutions of B-cell supernatants in PBS supplemented with 0.5% BSA and 0.05% Tween®-20 were added and incubated for 90 min at RT. After repeated washing (6×) with PBST (phosphate buffered saline with 0.2% Tween buffer the plates were developed with BM Blue® HRP substrate solution and color formation was measured by absorbance at 370 nm. A commercial rabbit IgG (Sigma-Aldrich) was used as a calibration standard.

murine B-cells = test: co-cultivation of murine B-cells with feeder mix additives; type: cell-based
Method: (§1) Thus, in one embodiment of all methods as reported herein the feeder mix for the co-cultivation of murine- or hamster-B-cells comprises IL-4.
(§2) Thus, in one embodiment of all methods as reported herein the feeder mix for the co-cultivation of murine-B-cells or hamster-B-cells comprises IL-6. In one embodiment the IL-6 is added at a concentration of 50 ng/ml. In one embodiment IL-6 is added at a concentration of 10 ng/ml, if high IgG-concentration is required. In one embodiment the addition of IL-6 is after three days of co-cultivation of the selected B-cells and EL-4 B5 cells.

hamster B-cells = test: co-cultivation of hamster B-cells with feeder mix additives; type: cell-based
Method: as §1, §2

## O=c1ccc2c(OCCCCOc3ccccc3)c3ccoc3cc2o1 [PAP-1, 5-(4-phenoxybutoxy) psoralene]
Single deposited B-cells
  number of B-cell clones: without decreasing the number of B-cell clones
  rbIgG secretion of B-cells: increases the rbIgG secretion of B-cells in a concentration dependent manner

## IL-6: interleukin-6, cytokine added to the feeder mix
Murine B-cells; addition of IL-6 to the feeder mix, murine-B-cells
  number of IgG+-wells/cell clones: increased number of IgG^+-wells/cell clones
Hamster B-cells; addition of IL-6 to the feeder mix, hamster-B-cells
  IgG-concentration: increased IgG-concentration

B1: IL-4: interleukin-4, cytokine added to the feeder mix (protein, UniProt P05112 25-153, looked up)
Interleukin-4: HKCDITLQEIIKTLNSLTEQKTLCTELTVTDIFAASKNTTEKETFCRAATVLRQFYSHHEKDTRCLGATAQQFHRHKQLIRFLKRLDRNLWGLAGLNSCPVKEANQSTLENFLERLKTIMREKYSKCSS
Murine B-cells; addition of IL-4 to the feeder mix, murine B-cells
  number of IgG+-wells/cell clones and IgG-concentration in the supernatant: increases the number of IgG^+-wells/cell clones as well as the IgG-concentration in the supernatant
Hamster B-cells; addition of IL-4 to the feeder mix, hamster B-cells
  number of IgG+-wells/cell clones and IgG-concentration in the supernatant: increases the number of IgG^+-wells/cell clones as well as the IgG-concentration in the supernatant
